Residues, ends and D or L forms follow the SMILES beside them. *: point of attachment. Cbz = O=C(OCc1ccccc1)*; CH2F = FC*
Assays:
Format in all cases: cell-based, human
Cama-1 cells = test: Apoptosis by annexin V staining and flow cytometry; conditions: Cama-1; for effect on Poly IC induced apoptosis: 5 μg/ml Poly IC; for percentage of apoptotic cells: 5 μg/ml Poly IC or 25 ng/ml TNF-α
Procedure: (§1) Cell recovery after treatment with TLR ligands was measured by crystal violet staining (Sigma-Aldrich). Cells were plated at 10^4 cells/well in 96 well plates. After 72 hours of culture either with or without TLR ligand, the cells were washed with PBS, fixed in 6% formaldehyde (Sigma-Aldrich) for 20 minutes, washed twice, and then stained with 0.1% crystal violet for 10 minutes. After washes and incubation in 1% SDS for 1 hour, the absorbance was read at 605 nm on a Vmax plate reader (Molecular Devices, Sunnyvale, Calif.). Annexin V staining was performed with an annexin-FITC apoptosis detection kit (BD Pharmingen, San Diego, Calif.) according to the manufacturer's instructions. Sub-diploid cells were detected by staining with 3 μg/mL propidium iodide (PI) (Molecular probes, Eugene, Oreg.), after overnight permeabilization in 70% ethanol. Fluorescence was analyzed by flow cytometry on a FACScalibur (Becton Dickinson, Mountain View, Calif.) equipped with a doublet-discrimination module and using Celiquest Pro software (Becton Dickinson).
Cama-1 cells were plated in 6 well plates at 3×10^5 cells per well. After overnight adherence, siRNA transfections were performed for 5 hours in OptiMEM medium (Life technologies) containing 3 μg/mL lipofectamine 2000 (Invivogen) and 100 nM siRNA. Cells were then washed and cultured for 72 hours in complete medium before treatment with Poly IC and apoptosis analysis. siRNA duplexes specific for TLR3, PKR, IRAK-4, TRAF6 and p65 were purchased from Dharmacon (Lafayette, Colo.) as SMART-Pools. TRIF siRNA was purchased from the same supplier as single oligoduplexes (5′-GCUCUUGUAUCUGMGCAC-3′) (SEQ ID NO: 23). TLR3 and TRIF expression was assessed by PCR (35 cycles: 1 min 94° C., 1 min 55° C., 2 min 72° C.) with Taq PCR ReadyMix (Sigma-Aldrich) using following primers: […]
To further investigate the effect of Poly IC treatment on breast tumor cell lines, cell death was analyzed in Cama-1 cells by annexin V staining. Cells were cultured for 24 hours either with or without 5 μg/ml of Poly IC. Apoptosis was measured by annexin V staining and flow cytometry.
We also tried to determine the kinetics of Poly IC induced apoptosis. Cama-1 cells were cultured either with or without 5 μg/ml or 50 ng/ml of Poly IC. The percentage of apoptotic (annexin positive) cells in the culture were measured during the following 30 hours. […] Specifically, Poly IC triggered apoptosis in Cama-1 cells beginning 9 hours after Poly IC addition and reaching up to 80% apoptotic cells after 30 hours of treatment.
Poly AU was analyzed for its effects on apoptosis. Cama-1 cells were cultured for 48 hours either with PBS or with increasing concentrations of Poly AU ranging from 5 ng/ml to 50 μg/ml. Apoptosis was analyzed by measuring the percentage of annexin V positive cells.
In order to determine the pathway of Poly IC induced Cama-1 cell toxicity, RNA interference was used to efficiently downregulate expression of TRIF and PKR. Cama-1 cells were plated in 6 well plates at 3×10^5 cells per well. After overnight adherence, siRNA transfections were performed for 5 hours in OptiMEM medium (Life technologies) containing 3 μg/mL lipofectamine 2000 (Invivogen) and 100 nM siRNA. Cells were transfected with either MOCK (water), control scrambled duplex (scr) siRNA, TRIF siRNA or PKR siRNA.
72 hours after siRNA transfection, Cama-1 cells were cultured for another 24 hours either with or without 5 μg/ml Poly IC. Apoptosis was measured by annexin V staining and expressed as a percentage of apoptotic cells in culture. On average, 10% of control cells (MOCK and scr) that were untreated underwent apoptosis. In contrast, about 75% of control cells (MOCK and scr) that were treated with Poly IC underwent apoptosis.
To further investigate TLR3 mediated cytotoxicity, the involvement of the signaling molecules IRAK4 and TRAF6, both downstream mediators of TLR signaling, were assessed. Cama-1 cells were plated in 6 well plates at 3×10^5 cells per well. […]

[1] = tested on: Cama-1, SW527, BT483 and MCF-7; test: Cell recovery by crystal violet staining, four breast tumor cell lines together; conditions: 72 h, 5 μg/ml PGN; for effect on cell recovery of any of the four breast cancer cell lines: 10 μg/ml LPS, 50 ng/ml flagellin, 6 μg/ml R848, 10 μg/ml CpG ODNs; for cell recovery, percent of control, on average: 50 μg/ml Poly IC or 10 μg/ml LPS, average of the four cell lines
Procedure: as §1
Four human breast tumor cell lines, Cama-1, SW527, BT483 and MCF-7, were analyzed for cell death in response to Poly IC. Cells were cultured for 72 hours with 5 μg/ml PGN, 50 μg/ml Poly IC or 10 μg/ml LPS. Control cells were cultured with PBS. Cytotoxicity was assessed by crystal violet staining and expressed as a percent of control.
Furthermore, additional TLR ligands were tested to determine any possible effects on cellular toxicity. The ligands tested were PGN, LPS, Flagellin, R848 and CpG. Cells were cultured for 72 hours with 5 μg/ml PGN, 10 μg/ml LPS, 50 ng/ml flagellin, 6 μg/ml R848, 10 μg/ml CpG ODNs, or with PBS as control. Cell recovery was assessed by crystal violet staining and expressed as a percent of control.

IL-8 = IL-8 secretion by breast cancer cell lines; conditions: certain cell lines
TLR3 mRNA = TLR3 mRNA expression by RT-PCR in Cama-1 cells; conditions: 48 h, 5 μg/ml, agent alone
Procedure: Cama-1 cells were analyzed for TLR3 mRNA expression in response to Poly IC. Cama-1 cells were cultured in complete medium (DMEM F12 containing […] glucose and complemented with 2 mM L-glutamine, 10% fetal calf serum, 160 μg/mL gentalline, 2.5 mg/mL sodium bicarbonate) for 48 hours either alone or with LPS (5 μg/ml) and/or with Poly IC (5 μg/ml). The mRNA from each group of cells was extracted. The mRNA was then reverse-transcribed and PCR amplified for 35 cycles (as above in Example 1) with hTLR3 specific primers: TLR3F: […] (SEQ ID NO: 5) and TLR3R: […] (SEQ ID NO: 6). TLR3 mRNA could not be amplified from resting Cama-1 cells.
Amplified DNA from RT-PCR using hTLR3 specific primers was run on a gel.

With C[C@@H]1C[C@@H]([C@H](O)CC2CC(=O)NC(=O)C2)C(=O)[C@@H](C)C1 [CHX, Cycloheximide] the “effect on TNF-α induced apoptosis” value (Cama-1 cells; 25 ng/ml TNF-α, annexin V) was “significantly sensitized Cama-1 cells to TNF-α induced apoptosis” and the “effect on Poly IC induced apoptosis” value (Cama-1 cells; annexin V) was “partially protected the cells against Poly IC induced apoptosis”.
CCOCc1nc2c(N)nc3ccccc3c2n1CC(C)(C)O [R848] was tested, and the “effect on cell recovery of any of the four breast cancer cell lines” value (shortened to “effect on cell recovery”) [1] was “None of those ligands significantly reduced cell recovery”.
In the case of COC(=O)C[C@H](NC(=O)[C@H](C)NC(=O)[C@@H](NC(=O)OCc1ccccc1)C(C)C)C(=O)CF [z-VAD-fmk] (Cbz-Val-Ala-Asp(OMe)-CH2F), the “effect on Poly IC induced apoptosis” value (Cama-1 cells; annexin V) is reported as “greatly reduced Poly IC induced apoptosis”.
With Flagellin the “effect on cell recovery” value [1] was “None of those ligands significantly reduced cell recovery”.
In the case of Peptidoglycan [PGN], the “secretion of IL-8” value (IL-8) is reported as “induced secretion of IL-8 in certain cell lines”, the “effect on cell recovery” value [1] is reported as “None of those ligands significantly reduced cell recovery” and the “cell recovery, percent of control, on average” value [1] is reported as 95%.
With TNF-α the “percentage of apoptotic cells” value (Cama-1 cells; 25 μM z-VAD-fmk pre-incubation 1 h, 24 h) was 10%, the “percentage of apoptotic cells” value (Cama-1 cells; DMSO pre-incubation 1 h, 24 h) was 40% and the “percentage of apoptotic cells” value (Cama-1 cells; absence of antibody (Example 12)) was 40%. For the same compound, the “percentage of apoptotic cells” value (Cama-1 cells; pre-incubated with 10 μg/ml CHX, untreated 15%) was 70% and the “percentage of apoptotic cells” value (Cama-1 cells; pre-incubated with 20 μg/ml neutralizing anti TNF-α mAb) was 10%.
In the case of lipopolysaccharide [LPS], the “effect on cell recovery” value [1] is reported as “None of those ligands significantly reduced cell recovery”, the “cell recovery, percent of control, on average” value [1] is reported as 95% and the “TLR3 mRNA expression” value (TLR3 mRNA) is reported as “did not affect TLR3 mRNA expression”.
For “polyadenylic-polyuridylic acid [Poly AU]”, the “apoptosis (annexin V positive cells)” value (Cama-1 cells; 48 h, 5 ng/ml to 50 μg/ml Poly AU) was “triggers apoptosis”.

— patent publication US20060147456A1, “Induction of apoptosis in toll-like receptor expressing tumor cells” (priority 2004, published 2006)
